# Measured values: US9239334B2, “Fatty acid C16: 1N7-palmitoleate a lipokine and biomarker for metabolic status” (PRESIDENT AND FELLOWS OF HARVARD COLLEGE, priority 2008, dated 2016)
# Tests used:
# [1] = Hyperinsulinemic-euglycemic clamp in palmitoleate-infused mice; assay type: in vivo
# From the text: (§1) FIGS. 7A-7G show data on the regulation of insulin signaling and glucose metabolism by palmitoleate. FIG. 7A is the basal and insulin-stimulated phosphorylation of insulin receptor (IR), insulin receptor substrate-1 (IRS-1) and -2 (IRS-2) and AKT in liver of mice infused with vehicle (Veh), TG:palmitoleate (C16:1n7) or TG:palmitate (C16). Representative blots are shown and quantifications on the right are averaged results of three mice in each treatment group. […] Representative blots are shown and quantifications on the right are averaged results of three mice in each treatment group.
# FIG. 7G is the regulation of systemic metabolic responses by adipose-derived lipid hormones (Lipokines). In parallel with a variety of adipokines, specific lipids released from adipocytes in response to physiological stimuli act at remote sites including liver and muscle and regulate systemic lipid and carbohydrate metabolism. Lipid chaperones negatively regulate one of these lipokines, C16:1n7 (palmitoleate), and in the absence of these FABPs, strong flux of palmitoleate from adipose tissue to liver and muscle results in improved metabolic responses.
# To investigate whether the increased insulin signaling by elevated serum palmitoleate can be translated into improved glucose metabolism, hyperinsulinemic-euglycemic clamp studies were performed on mice infused with either vehicle or palmitoleate. To enable delivery of lipid at a rate that is compatible with clamp studies, fatty acid:palmitoleate was used instead of TG:palmitoleate. That palmitoleate enhanced both muscle and liver insulin signaling in this setting was confirmed by examining insulin stimulated activation of insulin receptor and AKT (FIG. 21). […] Instead, the increased glucose infusion rate in these mice was driven by enhanced whole body glucose metabolism (FIG. 7F), confirming that the increased insulin signaling by palmitoleate infusion can be directly reflected as improved glycemic control in conscious mice.
# INTRALIPID® fatty acid lipid infusion solution with 2 mM triglycerides:palmitate or palmitoleate were prepared using a previously described protocol with modifications (Stein et al., 1997). Briefly, lipids were dissolved in a solvent containing 5% glycerol and 0.72% phosphocholine in 0.9% saline, heated at 80° C. for 10 min, and then sonicated 1 min four times. For TG:palmitoleate, the heating was omitted to avoid oxidization of the lipids. Lipids stay in suspension for a week, so to prevent clogging the preparations must be vortexed well before loading the syringe and tubing. […] Serum FFAs were determined using a commercial kit (Wako Chem.). […]
# [2] = system: insulin receptor signaling in muscle tissue; test: Insulin signaling in muscle of lipid-infused mice (immunoblotting); assay type: in vivo; details: fatty acid:palmitoleate infusion 3.3 μl/min
# From the text: as §1
# The left panel presents the insulin-stimulated phosphorylation of insulin receptor and AKT in liver of mice infused with vehicle or palmitoleate. […] Mice were infused with vehicle or palmitoleate at 3.3 μl/min for six hrs, and insulin (1 U/Kg) was injected through the infusing tubing. Three minutes after insulin injection, tissues were collected and immunoblotting analyses were performed.
# The present invention also provides for the regulation of insulin action by increased circulating palmitoleate. To study whether palmitoleate regulates systemic metabolic responses, lipid infusions were administered in conscious mice. Lipid infusion has been used widely to investigate the relationship between plasma FFAs and insulin resistance, but almost all studies using this protocol utilized preparations of natural lipid products containing a variety of fatty acids. Kim et al., 114 J. Clin. Invest. 823-27 (2004); Kim et al., 277 J. Biol. Chem. 32915-22 (2002); Yu et al., 277 J. Biol. Chem. 50230-36 (2002). […]
# Samples of 200 μl serum were collected using heparin-coated glass tubes and spun at 13,000 g in a microcentrifuge to separate the plasma. […] Tissue protein lysates was separated with SDS-PAGE gels and phosphorylated or total proteins were detected with the following antibodies: phospho AKT Serine 473, AKT, insulin receptor, phospho-tyrosine (Santa Cruz Biotech.); IRS-1 and IRS-2 (Upstate); phospho-GSK and GSK (Cell Signaling Tech.); phospho-insulin receptor from (Calbiocbem). […]
# [3] = hyperinsulinemic-euglycemic clamp, vs vehicle
compound,measurement,setting,value
"CCCCCC/C=C\CCCCCCCC(=O)O [palmitoleate, C16:1n7-palmitoleate]",glucose infusion rate to maintain euglycemia,[1]; [3],significantly higher
same,whole body glucose metabolism (glucose disposal rate),[1]; [3],enhanced
same,clamped hepatic glucose production,"[1]; hyperinsulinemic-euglycemic clamp, vs vehicle controls",Neither basal nor clamped hepatic glucose production was significantly changed
same,basal hepatic glucose production,[1]; vs vehicle controls,Neither basal nor clamped hepatic glucose production was significantly changed
same,muscle insulin signaling (insulin receptor and AKT activation),[2],enhanced
